The record followed here is PMC12459522, “Design and synthesis of N-substituted-2-butyl-4-chloro-1H-imidazole derivatives as potential ACE inhibitors: in vitro study, in-silico analysis, and a multifaceted CSD-supported crystallographic investigation” (RSC Advances, 2025).

ACE, sequence (A0ACI6QSL6 entry or part of it): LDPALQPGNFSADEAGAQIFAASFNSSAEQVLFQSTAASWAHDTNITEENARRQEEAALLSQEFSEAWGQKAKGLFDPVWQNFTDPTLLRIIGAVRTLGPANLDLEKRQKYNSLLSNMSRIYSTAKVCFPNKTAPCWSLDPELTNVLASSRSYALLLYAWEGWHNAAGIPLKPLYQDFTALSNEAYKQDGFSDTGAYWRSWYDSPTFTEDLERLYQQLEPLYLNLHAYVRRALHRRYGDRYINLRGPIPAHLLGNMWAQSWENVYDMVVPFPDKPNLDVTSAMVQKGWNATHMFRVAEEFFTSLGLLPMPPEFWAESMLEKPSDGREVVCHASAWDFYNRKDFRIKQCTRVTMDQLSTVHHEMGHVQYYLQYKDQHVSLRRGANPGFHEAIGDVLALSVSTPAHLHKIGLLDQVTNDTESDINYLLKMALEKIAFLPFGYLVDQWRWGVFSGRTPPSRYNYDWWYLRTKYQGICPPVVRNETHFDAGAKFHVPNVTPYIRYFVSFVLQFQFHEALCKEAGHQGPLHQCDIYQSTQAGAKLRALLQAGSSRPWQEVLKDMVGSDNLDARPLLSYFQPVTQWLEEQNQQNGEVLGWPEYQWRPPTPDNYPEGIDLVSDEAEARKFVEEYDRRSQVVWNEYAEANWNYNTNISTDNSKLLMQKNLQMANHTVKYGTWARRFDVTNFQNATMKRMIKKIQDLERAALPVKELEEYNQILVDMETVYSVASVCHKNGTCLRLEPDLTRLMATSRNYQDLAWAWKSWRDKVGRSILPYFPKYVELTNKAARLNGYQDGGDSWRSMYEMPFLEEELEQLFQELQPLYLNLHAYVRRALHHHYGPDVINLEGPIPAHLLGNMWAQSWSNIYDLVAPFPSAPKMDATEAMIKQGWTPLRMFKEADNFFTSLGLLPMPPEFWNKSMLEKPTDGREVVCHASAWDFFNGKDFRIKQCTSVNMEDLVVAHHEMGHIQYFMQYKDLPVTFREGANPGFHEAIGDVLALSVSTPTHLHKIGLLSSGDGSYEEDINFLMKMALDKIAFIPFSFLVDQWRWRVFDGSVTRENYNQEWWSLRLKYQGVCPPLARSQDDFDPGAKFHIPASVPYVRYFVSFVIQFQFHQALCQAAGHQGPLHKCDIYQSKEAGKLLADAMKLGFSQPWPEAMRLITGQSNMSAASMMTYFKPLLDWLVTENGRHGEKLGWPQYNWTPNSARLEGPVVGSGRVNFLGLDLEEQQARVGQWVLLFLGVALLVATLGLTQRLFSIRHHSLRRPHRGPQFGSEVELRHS

One assay has as its target ACE (Ovis aries, UniProt A0ACI6QSL6). In words: In vitro colorimetric ACE inhibition assay (HHL substrate, hippuric acid release, 410 nm). It is filed as biochemical, sheep.
Details: not given
As to the method:
The ACE enzyme extract was preincubated with various concentrations of test compounds (4a–f) ranging from 250 nM to 25 μM, alongside the standard lisinopril (100–500 nM), for 10 minutes at 37 °C. The reaction was initiated by adding sodium borate buffer containing 0.3 M sodium chloride and 5 mM HHL, followed by a 30 minutes incubation at 37 °C. To terminate the reaction, 60 μL of 1 M HCl was added, which was subsequently followed by the addition of 120 μL of pyridine and 60 μL of benzene sulfonyl chloride for color development. The mixture was then cooled on ice for 5 minutes, and the resulting yellow color was measured spectrophotometrically at 410 nm. The reduction in HA concentration during the inhibition reaction, compared with that during the control reaction, was expressed as % inhibition, and the IC50 values were calculated via semilogarithmic plots. […] The IC50 values for the compounds and the standard lisinopril are presented in Table 1, and a bar graph comprising % inhibition is depicted in Fig. 2.
Sheep kidney acetone powder was prepared in the laboratory according to a modified protocol by Hector et al.[24] Fresh sheep kidney tissue was homogenized with prechilled acetone (1 : 3) and vacuum-filtered using a Buchner funnel. Re-extraction was performed until the solid residue turned colorless. This residue was air-dried and sifted to obtain a uniform powder, which was stored in an airtight container at 0–4 °C.
ACE was extracted from the prepared acetone powder as described by Jimsheena et al.[25] One gram of acetone powder was extracted via 10 mL of sodium borate buffer (0.05 M, pH 8.2) containing 0.3 M sodium chloride and 0.5% Triton X-100 at 4 °C for 18 hours. This extract was later centrifuged at 15 000g for 60 minutes at 4 °C. The supernatant was collected and dialyzed against the same buffer without Triton X-100 (3 L, the buffer was changed 3 times) for 24 hours. This extract was stored at −20 °C until further use. The specific activity was 0.8234 units per mg of protein.
ACE activity was calculated by measuring the release of hippuric acid (HA) from the substrate hippuryl-histidyl-leucine (HHL). One unit of ACE activity is defined as the amount of enzyme that releases 1 μmol of HA per minute at 37 °C and pH 8.2. The ACE enzyme extract was preincubated with different concentrations of the test compounds (250 nM to 25 μM) and a standard drug solution (lisinopril, 100–500 nM) for 10 minutes at 37 °C. The reaction was initiated by the addition of sodium borate buffer (0.05 M, pH 8.2) containing 0.3 M sodium chloride and 5 mM HHL. The mixture was incubated at 37 °C for 30 minutes, followed by the addition of 60 μL of 1 M HCl to stop the reaction. This was followed by the addition of 120 μL of pyridine and 60 μL of […] sulfonyl chloride (BSC) for color development. The mixture was mixed gently and cooled on ice for 5 minutes. The yellow color developed was measured spectrophotometrically at 410 nm.[25] The reduced HA concentration in the inhibition reaction compared with the control reaction is expressed as % inhibition, which was calculated as:% inhibition = 100 − (Atest/Acontrol) × 100,where Atest = absorbance of the test reaction and Acontrol = absorbance of the control reaction.
As usually defined, the IC50 is the concentration at which inhibition is half-maximal. `NCCCC[C@H](N[C@@H](CCc1ccccc1)C(=O)O)C(=O)N1CCC[C@H]1C(=O)O` [Lisinopril, reference compound]: inhibition was half-maximal at 300 ± 135 nM (IC50).

Staying with this assay, now noted: sheep kidney ACE extract, HHL substrate, 37 °C, pH 8.2; read-out: IC50 against the ACE.
For “2-(2-Butyl-4-chloro-5-(hydroxymethyl)-1H-imidazol-1-yl)-1-(naphthalen-1-yl)ethan-1-ol [4d]”, the IC50 came to 2120 ± 15 nM.

In the case of `CCCCc1nc(Cl)c(CO)n1CC(O)c1ccc(OC)cc1` (stereo not shown) [4a, 2-(2-Butyl-4-chloro-5-(hydroxymethyl)-1H-imidazol-1-yl)-1-(4-methoxyphenyl)ethan-1-ol], the concentration for half-maximal inhibition (IC50) was found to be 2470 ± 102 nM.

Regarding `CCCCc1nc(Cl)c(CO)n1CC(O)c1ccc([N+](=O)[O-])cc1` (stereo not shown) [4b, 2-(2-Butyl-4-chloro-5-(hydroxymethyl)-1H-imidazol-1-yl)-1-(4-nitrophenyl)ethan-1-ol], the IC50 turned out to be 1310 ± 26 nM.

Consider `CCCCc1nc(Cl)c(CO)n1CC(O)c1ccc(C)cc1` (stereo not shown) [4c, 2-(2-Butyl-4-chloro-5-(hydroxymethyl)-1H-imidazol-1-yl)-1-(p-tolyl)ethan-1-ol], for which the half-maximal inhibitory concentration (IC50) stood at 1560 ± 65 nM.

For the molecule `CCCCc1nc(Cl)c(CO)n1CC(O)c1ccc(Cl)cc1` (stereo not shown) [4e, 2-(2-Butyl-4-chloro-5-(hydroxymethyl)-1H-imidazol-1-yl)-1-(4-chlorophenyl)ethan-1-ol], the IC50 worked out at 4890 ± 68 nM.

For the molecule `CCCCc1nc(Cl)c(CO)n1CC(O)c1ccc(F)cc1` (stereo not shown) [4f, 2-(2-Butyl-4-chloro-5-(hydroxymethyl)-1H-imidazol-1-yl)-1-(4-fluorophenyl)ethan-1-ol], the IC50 stood at 7570 ± 85 nM.
